The assay concerns B6C3F1 mice, ip Sarcoma M5076, median survival T/C. The experiment in a line: NCI In Vivo Anticancer Drug Screen. Data for tumor model Sarcoma M5076 (intraperitoneal) in B6C3F1 mice. The settings on record: endpoint: median survival time, schedule: Q04DX004 (ip), higher = longer survival. In a few lines:
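Antitumour effect is judged in tumour-bearing mice by comparing survival after compound dosing against vehicle-only animals, reported as T/C.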

[1] abbreviates: dose: 50.0 mg/kg/injection, vehicle: Klucel (hydroxypropylcellulose) (HPC).
The mark [2] stands for this setting: dose: 100.0 mg/kg/injection, vehicle: Klucel (hydroxypropylcellulose) (HPC).
The mark [3] stands for this setting: dose: 200.0 mg/kg/injection, vehicle: Klucel (hydroxypropylcellulose) (HPC).
[4] abbreviates: dose: 400.0 mg/kg/injection, vehicle: Klucel (hydroxypropylcellulose) (HPC).
The mark [5] stands for this setting: dose: 25.0 mg/kg/injection, vehicle: saline with Tween-80.
[6] abbreviates: dose: 50.0 mg/kg/injection, vehicle: saline with Tween-80.
Setting [7] is: dose: 100.0 mg/kg/injection, vehicle: saline with Tween-80.
The mark [8] stands for this setting: dose: 200.0 mg/kg/injection, vehicle: saline with Tween-80.
The mark [9] stands for this setting: dose: 400.0 mg/kg/injection, vehicle: saline with Tween-80.
Setting [10] is: dose: 800.0 mg/kg/injection, vehicle: Klucel (hydroxypropylcellulose) (HPC).

SMILES strings stand for the structures. Where “and” joins values, the source holds several entries; their conditions need not be identical. Equal entries are not always repeated. Inconclusive results and toxic doses are left out.

17 compounds from PubChem BioAssay AID292 (DTP/NCI, 2004) can be followed below.

On to `C=CCCC(=O)CCCC(=O)O[C@@H]1[C@@H]2[C@H](CC1(C)C)[C@H](O)[C@@]13O[C@@H]1[C@H](O)[C@@]1(CO1)[C@@]23C`, for which the T/C by setting is: (dose: 50.0 micrograms/kg/injection, vehicle: Klucel (hydroxypropylcellulose) (HPC)) 92 % of control; (dose: 100.0 micrograms/kg/injection, vehicle: Klucel (hydroxypropylcellulose) (HPC)) 96 % of control; (dose: 200.0 micrograms/kg/injection, vehicle: Klucel (hydroxypropylcellulose) (HPC)) 96 % of control; (dose: 400.0 micrograms/kg/injection, vehicle: Klucel (hydroxypropylcellulose) (HPC)) 96 % of control; (dose: 800.0 micrograms/kg/injection, vehicle: Klucel (hydroxypropylcellulose) (HPC)) 93 % of control.
On to `NC(Cn1ccc(=O)c(O)c1)C(=O)O` (configuration not stated), for which the T/C reads like this: (dose: 75.0 mg/kg/injection, vehicle: saline) 100 % of control; (dose: 150.0 mg/kg/injection, vehicle: saline) 109 % of control; (dose: 300.0 mg/kg/injection, vehicle: saline) 103 % of control; (dose: 600.0 mg/kg/injection, vehicle: saline) 118 % of control; (dose: 1200.0 mg/kg/injection, vehicle: saline) 113 % of control.
Regarding `COC12[C@@H]3N[C@@H]3CN1C1=C(C(=O)C(NCCSSCCNC3=C(C)C(=O)C4=C(C3=O)C(COC(N)=O)[C@]3(OC)C5N[C@@H]5CN43)=C(C)C1=O)[C@@H]2COC(N)=O` (some centres not stated), the T/C by setting is: (dose: 3.0 mg/kg/injection, vehicle: other) 161 % of control; (dose: 6.0 mg/kg/injection, vehicle: other) 216 % of control; (dose: 12.0 mg/kg/injection, vehicle: other) 91 % of control; (dose: 12.5 mg/kg/injection, vehicle: other) 253 % of control.
Consider `COc1ccc(C=C(C(=O)CCN(C)C)C(=O)CCN(C)C)cc1`, for which the T/C (dose: 25.0 mg/kg/injection, vehicle: saline) is 99 % of control; the T/C (dose: 50.0 mg/kg/injection, vehicle: saline) was 101 % of control; the T/C (dose: 100.0 mg/kg/injection, vehicle: saline) is 102 % of control; the T/C (dose: 200.0 mg/kg/injection, vehicle: saline) was 102 % of control.
`ClCCCN1CCN(CCCl)CC1`: the T/C was 99 % of control (dose: 0.63 mg/kg/injection, vehicle: saline with Tween-80); 118 % of control (dose: 1.25 mg/kg/injection, vehicle: saline with Tween-80); 175 % of control (dose: 10.0 mg/kg/injection, vehicle: saline with Tween-80); 94 % of control (dose: 20.0 mg/kg/injection, vehicle: saline with Tween-80).
Take `Nc1ccn(C2CC3[O][Sn]([c]4ccccc4)([c]4ccccc4)[O]CC3O2)c(=O)n1` (configuration not stated): the T/C (dose: 25.0 mg/kg/injection, vehicle: distilled water + Tween-80) is 100 % of control; the T/C (dose: 50.0 mg/kg/injection, vehicle: distilled water + Tween-80) is 100 % of control; the T/C (dose: 100.0 mg/kg/injection, vehicle: distilled water + Tween-80) is 105 % of control; the T/C (dose: 200.0 mg/kg/injection, vehicle: distilled water + Tween-80) is 100 % of control; the T/C (dose: 400.0 mg/kg/injection, vehicle: distilled water + Tween-80) is 95 % of control.
On to `N=C(N)Sc1ccccn1`, for which the T/C is, setting by setting: (dose: 62.5 mg/kg/injection, vehicle: saline) 97 % of control; (dose: 125.0 mg/kg/injection, vehicle: saline) 101 % of control; (dose: 250.0 mg/kg/injection, vehicle: saline) 90 % of control.
Consider `C=C(C)/C([O-])=N/[N+](C)(C)CC(O)CCCCCCCCCCCC` (configuration not stated), for which the T/C (dose: 12.5 mg/kg/injection, vehicle: suspension in saline) was 97 % of control; the T/C (dose: 25.0 mg/kg/injection, vehicle: suspension in saline) was 95 % of control; the T/C (dose: 50.0 mg/kg/injection, vehicle: suspension in saline) was 100 % of control; the T/C (dose: 100.0 mg/kg/injection, vehicle: suspension in saline) is 92 % of control.
Take `CC1C(c2ccccc2)OC(N2CCOCC2)C(C)(C)CN1C` (configuration not stated): the T/C by setting is: (dose: 150.0 mg/kg/injection, vehicle: saline with Tween-80) 101 % of control; (dose: 300.0 mg/kg/injection, vehicle: saline with Tween-80) 104 % of control; (dose: 600.0 mg/kg/injection, vehicle: saline with Tween-80) 99 % of control.
With `C/C(=C\c1ccccc1)C1C(C#N)C(=O)NC(=O)C1C#N` (configuration not stated), the T/C by setting is: under setting [1], 100 % of control; under setting [2], 113 % of control; under setting [3], 106 % of control; under setting [4], 106 % of control.
Take `CN1[C@H]2C=CC(=O)[C@]1(Cl)[C@H]1C(=O)N(c3ccccc3)C(=O)[C@@H]21`: the T/C is 102 % of control and 107 % of control under setting [5]; 101 % of control and 107 % of control under setting [6]; 95 % of control and 100 % of control under setting [7]; 94 % of control under setting [8]; 101 % of control under setting [9].
As for `O=C1C(=O)C(CN2CCOCC2)=C(N2CCOCC2)C(N2CCOCC2)=C1CN1CCOCC1`, the T/C is 96 % of control under setting [5]; 101 % of control under setting [6]; 94 % of control under setting [7]; 88 % of control under setting [8]; 92 % of control under setting [9].
Turning to `Cn1c(=O)ccc2c1nc1ccccc1[n+]2[O-]`, the T/C was 98 % of control (dose: 12.5 mg/kg/injection, vehicle: saline with Tween-80); 99 % of control under setting [5]; 103 % of control under setting [6]; 99 % of control under setting [7]; 94 % of control under setting [8].
As to `CCOC(=O)c1c[nH]c2ccc3c(nc(C)n3C)c2c1=O`, the T/C was 101 % of control under setting [1]; 104 % of control under setting [2]; 101 % of control under setting [3]; 98 % of control under setting [4]; 103 % of control under setting [10].
Turning to `Oc1cc(O)cc(/C=C/c2ccc(O)c(O)c2)c1`, the T/C (dose: 12.5 mg/kg/injection, vehicle: DMSO) was 97 % of control; the T/C (dose: 25.0 mg/kg/injection, vehicle: DMSO) was 99 % of control; the T/C (dose: 50.0 mg/kg/injection, vehicle: DMSO) was 89 % of control; the T/C (dose: 100.0 mg/kg/injection, vehicle: DMSO) was 91 % of control.
As to `COc1ccc(CCN2C(=O)C(=O)N(c3ccc(Cl)c(Cl)c3)C2=O)cc1OC`, the T/C runs as follows: under setting [1], 99 % of control; under setting [2], 98 % of control; under setting [3], 94 % of control; under setting [4], 89 % of control; under setting [10], 93 % of control.
Take `C=C1COC(O)(C2OCOC(C3CC(=O)NC(=O)C3)C2O)C1C` (configuration not stated): the T/C was 112 % of control (dose: 4.0 micrograms/kg/injection, vehicle: water); 117 % of control (dose: 8.0 micrograms/kg/injection, vehicle: water); 105 % of control (dose: 13.8 micrograms/kg/injection, vehicle: water); 117 % of control (dose: 16.0 micrograms/kg/injection, vehicle: water); 116 % of control (dose: 23.04 micrograms/kg/injection, vehicle: water); 162 % of control (dose: 38.0 micrograms/kg/injection, vehicle: water). The T/C (dose: 38.4 micrograms/kg/injection, vehicle: water) is 110 % of control.
